Measured values: patent US20230190852A1, “COMPOSITIONS AND METHODS FOR JOINT HEALTH” (Unigen, Inc., priority 2013, published 2023)
Several values for one entry are separate records, joined by “and”; a condition that tells them apart may be missing. Equal values may be shown once.

Legend:
Wistar rats = experiment: Adjuvant-induced arthritis (AIA) rat model (paw edema, allodynia, ankle width); format: in vivo; design: Paw edema, Mean ± SD: unit not given beside the values; Allodynia, Mean ± SD / Ankle Width, Mean ± SD: unit not given here; conditions: for reduction in ankle diameter vs. vehicle control / reduction in pain sensitivity (allodynia) / reduction in paw edema vs. vehicle control / Allodynia, Mean ± SD / Paw edema, Mean ± SD: 100 mg/kg oral daily; for Ankle Width, Mean ± SD: AIA rats, oral 100 mg/kg; for Allodynia, Mean ± SD / Paw edema, Mean ± SD: AIA model, Wistar rats
Description: This adjuvant-induced rat arthritis model was used to evaluate the anti-pain and anti-inflammatory activity of a Curcuma:Morus (C:M) composition. Purpose bred female Wistar rats weighing 150-175 g (Charles River Laboratories, Inc., Wilmington, Mass.) were acclimated upon arrival for a week before being assigned randomly to their respective group. The rats were provided with fresh water and rodent chow diet ad libitum while being housed in a temperature controlled room (22.2° C.) on a 12 hour light-dark cycle. Treatment was started a day before antigen inoculation, wherein animals (n=9) were orally gavaged with a positive control ibuprofen, a 1C:1M test article, or a vehicle only control (propylene glycol). On the next day, arthritis was induced by sensitizing rats with an injection of complete Freund's adjuvant containing 5 mg/ml (w/v) suspension of heat killed Mycobacterium tuberculosis in liquid paraffin into the subplantar region of right hind paw of sedated rats (Currey, Ann. Rheum. Dis. 29:314, 1970; Whitehouse et al., Can. Med. Assoc. J. 129:249, 1983) an hour after a second treatment dose.
(§1) Treatment with the controls or test articles was started a day before intraplantar injection of complete adjuvant into the right hind paw. The anti-inflammatory effect of a C:M composition was reflected in the measured change in paw edema. Rats (n=9) were treated orally with 1C:1M composition (200 mg/kg, 100 mg/kg or 50 mg/kg), ibuprofen (100 mg/kg) or vehicle for 14 days. Data are expressed as mean±SD and p-values were calculated against vehicle. Paw edema was measured with the use of a plethysmometer (IITC, Woodland Hills, Calif.; Model 520) on day 1 (before antigen), day 3, 5, 7, 9 and 13 after antigen injection.
Treatment with the controls or test articles was started a day before intraplantar injection of complete adjuvant into the right hind paw. The anti-pain effect of a C:M composition was reflected by allodynia (induced pain). Rats (n=9) were treated orally with 1C:1M composition (200 mg/kg, 100 mg/kg or 50 mg/kg), ibuprofen (100 mg/kg) or vehicle for 14 days. Data are expressed as mean±SD and p-values were calculated against vehicle. Allodynia was evaluated by responsiveness to pressure applied perpendicular to the central plantar surface of the right hind paw using the Randall—Selitto test (Randall and Selitto, Arch. Intl Pharmacodyn Therap. 133:233, 1957). A positive response to the applied mechanical pressure, noted by sharp withdrawal of the paw, was recorded automatically by an electronic Von Frey Anesthesiometer (2390 series Electrovonfrey, IITC, Woodland Hills, Calif.) (Vivancos et al., 2004).
as §1, with “ankle diameter.” for “paw edema.”, “vehicle Ankle diameter” for “vehicle. Paw edema”, “using” for “with the use of”, “Pocket Thickness Gage (7309, Mitutoyo corp. Japan)” for “plethysmometer (IITC, Woodland Hills, Calif.; Model 520)”

CD-1 mice = experiment: Visceral pain perception model (Writhing's test, acetic acid); format: in vivo
Description: Mice (n=6 per group) were habituated under an inverted Plexiglas observation chamber for 30 minutes to allow them to acclimatize to their surroundings. Animals were orally administered treatment articles at different doses, […], or vehicle control (propylene glycol) 30 minutes before intraperitoneal administration of freshly made acetic acid solution (0.7% in 0.9% NaCl) at 10 ml/kg using a 26 gauge needle. The experiment was carried out at room temperature. After the challenge, each animal was placed back into its own individual section of the observation chamber and the number of constrictions of the abdominal muscle together with stretching was counted cumulatively over a period of 30 minutes (Collier et al., Br. J. Pharmacol. Chemother. 32:295, 1968).

[1] = 200 mg/kg oral, vs vehicle, CD-1 mice

CC(C)Cc1ccc(C(C)C(=O)O)cc1 (stereo not shown) [Ibuprofen]
reduction in ankle diameter vs. vehicle control (Wistar rats; day 3): 37.2%
reduction in pain sensitivity (allodynia) (Wistar rats; day 3): 31.3%
reduction in paw edema vs. vehicle control (Wistar rats; day 3): 28.8%
reduction in ankle diameter vs. vehicle control (Wistar rats; day 5): 34.8%
reduction in pain sensitivity (allodynia) (Wistar rats; day 5): 39.5%
reduction in paw edema vs. vehicle control (Wistar rats; day 5): 21.1%
reduction in ankle diameter vs. vehicle control (Wistar rats; day 7): 36.8%
reduction in pain sensitivity (allodynia) (Wistar rats; day 7): 48.8%
reduction in paw edema vs. vehicle control (Wistar rats; day 7): 19.4%
reduction in ankle diameter vs. vehicle control (Wistar rats; day 9): 33.5%
reduction in pain sensitivity (allodynia) (Wistar rats; day 9): 52.5%
reduction in paw edema vs. vehicle control (Wistar rats; day 9): 24.3%
reduction in ankle diameter vs. vehicle control (Wistar rats; day 13): 44.2%
reduction in pain sensitivity (allodynia) (Wistar rats; day 13): 52.5%
reduction in paw edema vs. vehicle control (Wistar rats; day 13): 32.7%
Ankle Width, Mean ± SD (Wistar rats; Day 3): 1.1 ± 0.1
Ankle Width, Mean ± SD (Wistar rats; Day 5): 1.0 ± 0.1
Ankle Width, Mean ± SD (Wistar rats; Day 7): 1.2 ± 0.1
Ankle Width, Mean ± SD (Wistar rats; Day 9): 1.0 ± 0.2
Ankle Width, Mean ± SD (Wistar rats; Day 13): 0.8 ± 0.1
Allodynia, Mean ± SD (Wistar rats; Day 3): 67.4 ± 5.6
Paw edema, Mean ± SD (Wistar rats; Day 3): 3.5 ± 0.7
Allodynia, Mean ± SD (Wistar rats; Day 5): 54.8 ± 2.6
Paw edema, Mean ± SD (Wistar rats; Day 5): 3.1 ± 0.8
Allodynia, Mean ± SD (Wistar rats; Day 7): 43.0 ± 4.6
Paw edema, Mean ± SD (Wistar rats; Day 7): 3.1 ± 0.7
Allodynia, Mean ± SD (Wistar rats; Day 9): 38.8 ± 2.3
Paw edema, Mean ± SD (Wistar rats; Day 9): 2.7 ± 0.6
Allodynia, Mean ± SD (Wistar rats; Day 13): 32.9 ± 2.6
Paw edema, Mean ± SD (Wistar rats; Day 13): 2.1 ± 0.58
Max % inhibition of visceral pain sensitivity (CD-1 mice; 100 mg/kg oral): 67.6%
Visceral Pain Sensitivity % ↓ vs. Vehicle (CD-1 mice; 100 mg/kg oral): 56.1%
% reduction of pain behavior (CD-1 mice; 200 mg/kg oral): 67.4% and 46.0%
number of abdominal constrictions / behavioral responses in 30 minutes, Mean ± SD (CD-1 mice; 200 mg/kg oral): 25.3±14.3 and 41.8±12.6
Visceral pain sensitivity, behavioral responses, Mean ± SD (CD-1 mice; 200 mg/kg oral 30 min before acetic acid i.p., observed 30 minutes, CD-1 mice): 34.5 ± 12.7 and 25.3 ± 14.3 and 41.8 ± 12.6
Visceral pain sensitivity, % Inhibition (CD-1 mice; [1]): 67.4% and 46.0%
Visceral pain sensitivity, % inhibition vs vehicle (CD-1 mice; [1]): 64.1%
